Four compounds from patent US7223793B2, “Phenolic acid derivatives and composition for preventing or treating blood lipid level-related diseases comprising the same” (Bionutrigen Co., Ltd., priority 2001, dated 2007) can be followed below.

This experiment deals with T1, HMG-CoA reductase (Rattus norvegicus, UniProt P51639).
T1 construct: the supernatant was ultracentrifuged (100,000×g for 60 minutes) to obtain microsomal precipitates; from tissue; host or cells: liver microsomes of treated rats
T1 sequence (P51639 1-887): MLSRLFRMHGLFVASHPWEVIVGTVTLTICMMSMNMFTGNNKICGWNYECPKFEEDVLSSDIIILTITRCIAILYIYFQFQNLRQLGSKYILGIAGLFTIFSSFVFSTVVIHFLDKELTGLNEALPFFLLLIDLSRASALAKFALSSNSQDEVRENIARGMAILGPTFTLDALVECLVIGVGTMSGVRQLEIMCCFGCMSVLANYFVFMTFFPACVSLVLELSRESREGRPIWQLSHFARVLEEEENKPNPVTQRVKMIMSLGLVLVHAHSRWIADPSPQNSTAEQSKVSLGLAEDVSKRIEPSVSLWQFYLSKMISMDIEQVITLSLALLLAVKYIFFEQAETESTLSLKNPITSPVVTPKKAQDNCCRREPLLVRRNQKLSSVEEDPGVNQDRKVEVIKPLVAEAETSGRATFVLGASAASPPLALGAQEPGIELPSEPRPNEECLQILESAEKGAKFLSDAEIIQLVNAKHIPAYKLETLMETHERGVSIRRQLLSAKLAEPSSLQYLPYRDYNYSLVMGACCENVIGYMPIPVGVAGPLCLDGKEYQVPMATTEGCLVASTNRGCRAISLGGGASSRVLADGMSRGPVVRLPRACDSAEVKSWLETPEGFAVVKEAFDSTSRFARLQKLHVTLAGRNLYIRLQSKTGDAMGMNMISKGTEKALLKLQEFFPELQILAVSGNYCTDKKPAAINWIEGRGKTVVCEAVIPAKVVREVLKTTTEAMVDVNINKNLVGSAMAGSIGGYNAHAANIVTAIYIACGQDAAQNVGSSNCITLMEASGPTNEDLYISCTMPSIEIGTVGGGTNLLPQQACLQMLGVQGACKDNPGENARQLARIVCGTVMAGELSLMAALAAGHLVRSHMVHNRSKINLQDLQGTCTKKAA
The experiment in a line: HMG-CoA reductase activity in liver microsomes of treated rats (Experimental Example 6, Step 4). The format is in vivo. On the set-up: HMG-CoA reductase: unit not given here. The conditions noted are these: for HMG-CoA reductase: activity in liver microsomes of rats fed 6 weeks, CoA-SH by absorbance at 412 nm, average; for Inhibition of HMG-CoA reductase activity: liver microsomes of rats fed 6 weeks, relative to control group. Here is the method:
In order to measure the activity of HMG-CoA reductase, the method described by Hulcher et al. (J. Lipid Res., 14, 625-641 (1973)) was employed after some modification. In this method, the concentration of the coenzyme-A (CoA-SH), which is produced when HMG-CoA is reduced to a mevalonate salt by the action of HMG-CoA reductase, is determined by spectroscopy and the activity of HMG-CoA reductase is calculated therefrom.
3 g of liver tissue taken from each sacrificed rat of Step 2 was washed successively with 100 ml of a cold Saline (0.15M NaCl) and 100 ml of a cold buffer solution A (0.1M triethanolamine, HCl/0.2M EDTA/2 mM dithiothreitol). The cold buffer solution A was added to the liver tissue in an amount of 2 ml per 1 g of the liver tissue and the mixture was homogenized with a homogenizer. The homogenate was centrifuged (15,000×g for 15 minutes), and then, the supernatant was ultracentrifuged (100,000×g for 60 minutes) to obtain microsomal precipitates. The precipitates thus obtained were washed with 2 mL of a cold buffer solution A and ultracentrifuged (100,000×g for 60 minutes) to obtain precipitates. The precipitates thus obtained were washed with a 1 mL of cold buffer solution A and kept in a 1.5 mL tube at −70° C.
The reaction substrates used in the measurement of HMG-CoA reductase activity were as follows:
i) buffer solution B: 0.1M triethanolamine, HCl/0.02M EDTA (pH7.4),
ii) HMG-CoA solution: 150 mmoles/culture medium, and
iii) NADPH solution: 2 mmoles/culture medium.
The suspension (microsome) prepared in the above was mixed with the reaction substrate and the resulting mixture was placed in a centrifugation tube and reacted at 37° C. for 30 minutes. The reaction mixture was treated with 20 μl of 0.1M sodium arsenite and allowed to stand for 1 minute. Then, the mixture was reacted with 100 μl of citrate buffer solution (2M citrate/3% sodium tungstate, pH 3.5) at 37° C. for 10 minutes followed by centrifugation (25,000×g for 15 minutes) to remove protein. 1 mL of the supernatant thus obtained was transferred into a tube with a cap and 0.2 mL of 2M tris-HCl solution (pH 10.6) and 0.1 ml of 2M tris-HCl solution (pH 8.0) were added thereto to adjust the pH of the reaction to 8.0. Then, the reaction was mixed with 20 μl of DTNB buffer solution (3mM DTNB/0.1M triethanolamine/0.2M EDTA, pH 7.4) and the absorbance of the mixture was determined at 412 nm to calculate the amount of CoA-SH (activity of HMG-COA reductase). The inhibition of HMG-CoA reductase activity of the control and treated groups were calculated based on the above results.
(In general: Liver microsomes are a subcellular fraction often used to study metabolism.)

Take `COC(=O)C(CO)NC(=O)CCc1ccc(O)c(O)c1` (stereo not drawn) [BN30063, 2-[3-(3,4-dihydroxyphenyl)propionylamino]-3-hydroxy propionic acid methyl ester]: the HMG-CoA reductase worked out at 196.11 and the “Inhibition of HMG-CoA reductase activity” value is 20.09%. Taken in the same sequence, the figures for `CC[C@H](C)C(=O)O[C@H]1C[C@@H](C)C=C2C=C[C@H](C)[C@H](CC[C@@H]3C[C@@H](O)CC(=O)O3)[C@H]21` [Lovastatin, reference compound] were 173.25 and 29.40%. Consider `CC(C)CC(NC(=O)CCc1ccc(O)c(O)c1)C(=O)O` (stereo not drawn) [BN30064, 2-[3-(3,4-dihydroxyphenyl)propionylamino]-4-methyl pentanoic acid], for which the HMG-CoA reductase is 124.74. `O=C(O)CC(NC(=O)CCc1ccc(O)c(O)c1)C(=O)O` (stereo not drawn) [BN30067, 2-[3-(3,4-dihydroxyphenyl)propionylamino]-succinic acid] displayed an HMG-CoA reductase of 136.15.
